“Also recorded” adds a separate entry of the source.
Columns and labels:
C. difficile isolates = assay: Phytochemical microbial killing assay, diverse C. difficile isolates; assay type: cell-based, Clostridioides difficile
Protocol: (§1) FIG. 3B provides a heatmap of growth of 20 Clostridioides difficile isolates in the absence of presence of the polyphenolic glycoside polydatin or the Bacteroides liberated aglycone resveratrol. […] Growth induction or inhibition is measured as the ratio of growth in media (AUC) supplemented with glucose and 150 μM polydatin or resveratrol versus growth in media (AUC) supplemented with glucose and vehicle. Value>1 is representative of enhanced growth in compound and value <1 is representative of inhibition of growth in compound.
Bacterial isolates were grown in vitro in media plus compound. Killing was measured by bacterial culture optical density (proxy for amount of bacteria in a culture).
Phytochemical microbial killing assays: All gut pathogen isolates were grown on brain-heart-infusion supplemented with hemin (50 mg/L) and vitamin K1 (0.25 mg/L) (BHIS) agar plates or in basal media (BSG; proteose peptone (20 g/L), yeast (5 g/L), NaCl (5 g/L), glucose (5 g/L), potassium phosphate dibasic (5 g/L), cysteine (0.5 g/L), hemin (50 mg/L), and vitamin K1 (0.25 mg/L). Isolates were recovered on and grown in pre-reduced media in a Coy anaerobic chamber (Coy Labs). To determine the fitness effects of phloridzin hydrate (TCI), phloretin (TCI), polydatin (TCI), and resveratrol (TCI) on enteric pathogen fitness, each pathogen isolate was recovered on a BHIS agar plate and incubated anaerobically at 37 °C for 48 h. A starter culture (1 mL) of BSG was inoculated with C. difficile and grown for 15 h. This starter culture was then used to inoculate a BSG sub-culture (1 mL) at a final dilution of 1:10. This sub-culture was grown for 3 h to an OD600~0.5 before being used to inoculate experimental cultures at a final dilution of 1:50. The experimental media consisted of a modified YCFA media (mYCFA; casitone (2.5 g/L), yeast extract (0.625 g/L), cysteine (0.5 g/L), magnesium sulfate heptahydrate (f.c. 365 μM), calcium chloride dihydrate (f.c. 610 μM), sodium bicarbonate (4 g/L), dipotassium phosphate (0.45 g/L), monopotassium phosphate (0.45 g/L), sodium chloride (0.9 g/L), sodium acetate (2.71 g/L), Hemin (50 mg/L), Vitamin K1 (0.25 mg/L), ferrous sulfate (4 μg/mL), ATCC vitamin mix (1% v/v)) supplemented with glucose (15 mM, Sigma) plus each compound (150 μM) or glucose (15 mM, Sigma) plus DMSO (0.15%, Sigma). Bacterial growth was monitored by measuring the optical density at 600 nm (OD600) of each culture in a 384 well plate with an Epoch2 spectrophotometer (BioTek Instruments) and MicroPlate stacker (Agilent BioTek) for 24 hours.

B. uniformis = assay: In vitro aglycone liberation by wildtype B. uniformis (LC-MS); parameters: species or system Bacteroides uniformis ATCC 8492; conditions: role: product; B. uniformis culture supplemented with glycoside, after eight hours, LC-MS EIC (FIG. 2)
Text: Comparative LC-MS EICs (Extracted Ion Chromatogram) of methanol-water extracts of bacterial cultures supplemented with each polyphenolic glycoside after eight hours are provided. The trace labeled “A” corresponds to the EIC of each glycoside, and the trace labeled “B” corresponds to the EIC of each aglycone. The portion of the trace “B” peak overlapping the trace “A” peak corresponds to the aglycone detected from fragmentation of the glycoside at the ionization source and is a technical artifact.
FIGS. 5A and 5B show microbiome-mediated polyphenol aglycone liberation. […] Step 2: Spent media was filter-sterilized. Step 3: C. difficile was grown in spent media from either vehicle or polydatin (top).
In vitro aglycone liberation: All B. uniformis strains were grown on brain-heart-infusion supplemented with hemin (50 mg/L) and vitamin K1 (0.25 mg/L) (BHIS) agar plates or in basal media (BSG; proteose peptone (20 g/L), yeast (5 g/L), NaCl (5 g/L), glucose (5 g/L), potassium phosphate dibasic (5 g/L), cysteine (0.5 g/L), hemin (50 mg/L), and vitamin K1 (0.25 mg/L). All isolates were recovered on and grown in pre-reduced media in a Coy anaerobic chamber (Coy Labs).
To assess the capacity of Bacteroides to liberate aglycones from their parent polyphenolic glycosides, B. uniformis ATCC 8492 WT and AgshD were recovered on a BHIS agar plate and incubated anaerobically at 37 °C for 48 h. A starter culture (1 mL) of BSG was inoculated with each isolate and grown for 15 h. This starter culture was then used to inoculate a BSG sub-culture (1 mL) at a final dilution of 1:10. […]
For polyphenolic glycoside and aglycone-containing samples, samples were dried under nitrogen flow and resuspended in 50 μl of methanol 50% in water. […] Samples were quantified on a QEplus mass spectrometer coupled to an Ultimate 3000 LC (Thermo fisher). […] Quantification was performed using Tracefinder (Thermo fisher), using the ratio of the area under the peak for each compound and of the internal standard, using the accurate mass of the [M−H]^− ions.

C. difficile [1] = assay: C. difficile infection (CDI) mouse model, C. difficile burden (CFU); assay type: in vivo, mouse (C57BL/6J) infected with Clostridioides difficile; conditions: infected mice; for anti-microbial effect on C. difficile in vivo: 500 μM in drinking water, CFU at day one and day two (FIG. 3C); for C. difficile burden in vivo: pure compound administered (FIGS. 6A-6B)
Protocol: as §1
C. difficile infection (CDI) model: An antibiotic-treatment-induced CDI mouse model developed previously was used for the infection model. Briefly, six-to eight-week-old male and female SPF C57BL/6J WT mice were treated for three days with a mixture of antibiotics including vancomycin (0.4 mg/mL, Sigma) colistin (850 U/mL, Sigma), metronidazole (0.215 mg/mL, Sigma), gentamicin (0.035 mg/mL, RPI), and kanamycin (0.045 mg/mL, Sigma) in their drinking water. Mice were then treated with regular water for two days and then injected intraperitoneal (IP) with clindamycin (10 mg/kg, Mylan Pharmaceuticals) in normal saline. After one day, mice were gavaged with […] of C. difficile M7404 diluted in PBS. Stool was collected from mice at one day and two days post infection, and immediately taken for assessment of C. difficile infection load.
C. difficile colony-forming units (CFUs): Mouse feces were collected from mice on day one and day two of C. difficile infection. Feces were weighed and resuspended to 50 mg/mL in pre-reduced 1× PBS. CFUs were enumerated by plating multiple dilutions on pre-reduced commercial ChromID C. difficile -selective plates (Biomerieux) after incubation for 24 hours at 37 °C in an anaerobic chamber (Coy Labs).

C. difficile [2] = assay: Phytochemical microbial killing assay, panel of gut bacterial pathogens; assay type: cell-based, Clostridioides difficile; conditions: 150 μM, media with glucose, growth ratio (AUC) vs vehicle, panel of gut bacterial pathogens (FIG. 3A)
Protocol: Growth is measured as the ratio of growth in media (AUC) supplemented with glucose and 150 μM glycoside or aglycone versus growth in media (AUC) supplemented with glucose and vehicle. Value>1 is representative of enhanced growth in compound and value<1 is representative of inhibition of growth in compound.
Phytochemical microbial killing assays: All gut pathogen isolates were grown on brain-heart-infusion supplemented with hemin (50 mg/L) and vitamin K1 (0.25 mg/L) (BHIS) agar plates or in basal media (BSG; proteose peptone (20 g/L), yeast (5 g/L), NaCl (5 g/L), glucose (5 g/L), potassium phosphate dibasic (5 g/L), cysteine (0.5 g/L), hemin (50 mg/L), and vitamin K1 (0.25 mg/L). Isolates were recovered on and grown in pre-reduced media in a Coy anaerobic chamber (Coy Labs). To determine the fitness effects of phloridzin hydrate (TCI), phloretin (TCI), polydatin (TCI), and resveratrol (TCI) on enteric pathogen fitness, each pathogen isolate was recovered on a BHIS agar plate and incubated anaerobically at 37 °C for 48 h. A starter culture (1 mL) of BSG was inoculated with C. difficile and grown for 15 h. […] Bacterial growth was monitored by measuring the optical density at 600 nm (OD600) of each culture in a 384 well plate with an Epoch2 spectrophotometer (BioTek Instruments) and MicroPlate stacker (Agilent BioTek) for 24 hours.

Row | SMILES | growth inhibition of Clostridioides difficile (C. difficile isolates; 150 μM, 20 C. difficile isolates, growth ratio (AUC) vs vehicle (FIG. 3B)) | killing / growth inhibition of diverse C. difficile isolates (C. difficile isolates; in vitro, media plus compound, culture optical density (FIG. 4)) | liberation of aglycone from polyphenolic glycoside (B. uniformis) | anti-microbial effect on C. difficile in vivo (C. difficile [1]) | C. difficile burden in vivo (C. difficile [1]) | selective killing of C. difficile (C. difficile [2])
1 | Oc1ccc(C=Cc2cc(O)cc(O)c2)cc1 [resveratrol] | showed growth inhibition of Clostridioides difficile; also recorded: universally anti-microbial against C. difficile | kills many diverse C. difficile isolates; also recorded: showed growth inhibition of C. difficile | liberates phloretin and resveratrol from their natural prodrugs in vitro | potent anti-microbial effects on C. difficile in vivo | decreases C. difficile burden | selectively kill the enteric pathogen C. difficile; also recorded: selectively kill hypervirulent C. difficile
2 | O=C(CCc1ccc(O)cc1)c1c(O)cc(O)cc1O [phloretin] |  |  | liberates phloretin and resveratrol from their natural prodrugs in vitro | potent anti-microbial effects on C. difficile in vivo | decreases C. difficile burden | selectively kill the enteric pathogen C. difficile; also recorded: selectively kill hypervirulent C. difficile

— patent publication US20260364124A1, “ANTI-C. DIFFICILE SMALL MOLECULE METABOLITES FROM DIET AND GUT MICROBIOME” (The Children's Medical Center Corporation, priority 2023, published 2026)
